Test results reported in ChEMBL document CHEMBL3243925, “Disteroidyl ethers. 1. Synthesis and oral long-lasting uterotrophic activity of 1,3,5(10)-estratrien-17-yl enol ethers of 3-keto steroids” (1977).

Experiments:
Rattus norvegicus [1] = assay: Uterotrophic activity in spayed Wistar rat assessed as autopsies by measuring uterus weight at 0.1 umol, po after 1 week (reference value: 15.1 +/- 0.51 mg); format: functional
Rattus norvegicus [2] = assay: Uterotrophic activity in spayed Wistar rat assessed as autopsies by measuring uterus weight at 0.1 umol, po after 2 weeks (reference value: 15.9 +/- 0.50 mg); format: functional

C#C[C@]1(OC(C)=O)CC[C@H]2[C@@H]3CC=C4C=C(O[C@H]5CC[C@H]6[C@@H]7CCc8cc(OC(=O)c9ccccc9)ccc8[C@H]7CC[C@]56C)CC[C@@H]4[C@H]3CC[C@@]21C
Activity (Rattus norvegicus [1]): 25.6 mg | Activity (Rattus norvegicus [2]): 21.4 mg

C#C[C@]1(O)CC[C@H]2[C@@H]3CCc4cc(OC5CCCC5)ccc4[C@H]3CC[C@@]21C [QUINESTROL]
Activity (Rattus norvegicus [1]): 39 mg | Activity (Rattus norvegicus [2]): 29 mg

C[C@]12CC[C@@H]3c4ccc(O)cc4CC[C@H]3[C@@H]1CC[C@@H]2OC1=CC2=CC[C@H]3[C@@H]4CC[C@H](O)[C@@]4(C)CC[C@@H]3[C@@]2(C)CC1
Activity (Rattus norvegicus [1]): 50.2 mg | Activity (Rattus norvegicus [2]): 36.8 mg

C[C@]12CC[C@@H]3c4ccc(O)cc4CC[C@H]3[C@@H]1CC[C@@H]2OC1=CC2=CC[C@@H]3[C@H](CC[C@]4(C)[C@@H](O)CC[C@@H]34)[C@H]2CC1
Activity (Rattus norvegicus [1]): 59.9 mg | Activity (Rattus norvegicus [2]): 41.6 mg

CCC(=O)O[C@H]1CC[C@H]2[C@@H]3CC[C@H]4CC(O[C@H]5CC[C@H]6[C@@H]7CCc8cc(OC(=O)c9ccccc9)ccc8[C@H]7CC[C@]56C)=CC[C@]4(C)[C@H]3CC[C@]12C
Activity (Rattus norvegicus [1]): 23.3 mg | Activity (Rattus norvegicus [2]): 21.3 mg

C#C[C@]1(OC(=O)CCCCCC)CC[C@H]2[C@@H]3CC=C4C=C(O[C@H]5CC[C@H]6[C@@H]7CCc8cc(OC(=O)c9ccccc9)ccc8[C@H]7CC[C@]56C)CC[C@@H]4[C@H]3CC[C@@]21C
Activity (Rattus norvegicus [1]): 35.6 mg | Activity (Rattus norvegicus [2]): 24.2 mg

C#C[C@]1(OC(=O)CCCCCC)CC[C@H]2[C@@H]3CC=C4C=C(O[C@H]5CC[C@H]6[C@@H]7CCc8cc(O)ccc8[C@H]7CC[C@]56C)CC[C@@H]4[C@H]3CC[C@@]21C
Activity (Rattus norvegicus [1]): 33.8 mg | Activity (Rattus norvegicus [2]): 22.1 mg

CC(=O)O[C@H]1CC[C@H]2[C@@H]3CC[C@H]4C=C(O[C@H]5CC[C@H]6[C@@H]7CCc8cc(OC(=O)c9ccccc9)ccc8[C@H]7CC[C@]56C)C=C[C@]4(C)[C@H]3CC[C@]12C
Activity (Rattus norvegicus [1]): 21.3 mg | Activity (Rattus norvegicus [2]): 20.1 mg

C#C[C@]1(OC(C)=O)CC[C@H]2[C@@H]3CC=C4C=C(O[C@H]5CC[C@H]6[C@@H]7CCc8cc(O)ccc8[C@H]7CC[C@]56C)CC[C@@H]4[C@H]3CC[C@@]21C
Activity (Rattus norvegicus [1]): 38.1 mg | Activity (Rattus norvegicus [2]): 26.7 mg
